Source: EP2931723B1, “NEW BICYCLIC COMPOUNDS AND THEIR USE AS ANTIBACTERIAL AGENTS AND -LACTAMASE INHIBITORS” (Fedora Pharmaceuticals Inc., priority 2012, dated 2014)

Legend:
Test in all cases: MIC, antibacterial and synergistic activity
Assay type in all cases: cell-based
P. aerug JMI 2686 = P. aerug JMI 2686 (KPC-2 (Cpase)); substance alone
E. coli JMI 10770 = conditions: Escherichia coli, JMI10770; E. coli JMI 10770 (CTX-M15 (Hyper ESBL)); substance alone
K.pneumo JMI 4109 = K.pneumo JMI 4109 (SHV-1, SHV-12); substance alone
K. pneumo JMI 2693 = K. pneumo JMI 2693 (NDM-1 (Cpase)); for MIC Aztreonam + inhibitor: Aztreonam + inhibitor at 4 µg/mL; for MIC Ceftazidime + inhibitor: Ceftazidime + inhibitor at 4 µg/mL; for MIC Meropenem + inhibitor: Meropenem + inhibitor at 4 µg/mL; for MIC: substance alone
Protocol: (§1) In the Tables 10 - 12, compounds herein disclosed were tested in combination with various antibiotics against metallo β-lactamase producing bacteria.

K. pneumo JMI 2697 = K. pneumo JMI 2697 (IMP-4 (Cpase)); for MIC Aztreonam + inhibitor: Aztreonam + inhibitor at 4 µg/mL; for MIC Ceftazidime + inhibitor: Ceftazidime + inhibitor at 4 µg/mL; for MIC Meropenem + inhibitor: Meropenem + inhibitor at 4 µg/mL; for MIC: substance alone
Protocol: as §1

E. coli JMI 2692 = E. coli JMI 2692 (NDM-1, TEM-1, CTX-M-15); for MIC Aztreonam + inhibitor: Aztreonam + inhibitor at 4 µg/mL; for MIC Ceftazidime + inhibitor: Ceftazidime + inhibitor at 4 µg/mL; for MIC Meropenem + inhibitor: Meropenem + inhibitor at 4 µg/mL; for MIC: Escherichia coli, JMI2692, substance alone, read-out: MIC
Protocol: as §1

E. coli JMI 11103 = conditions: for MIC Aztreonam + inhibitor / MIC Ceftazidime + inhibitor / MIC Meropenem + inhibitor: E. coli JMI 11103 (CTX-M15 (Intermediate ESBL)); for MIC Aztreonam + inhibitor: Aztreonam + inhibitor at 4 µg/mL; for MIC Ceftazidime + inhibitor: Ceftazidime + inhibitor at 4 µg/mL; for MIC Meropenem + inhibitor: Meropenem + inhibitor at 4 µg/mL; for MIC: Escherichia coli, JMI11103, E. coli JMI 11103 (CTX-M15 (Intermediate ESBL)), substance alone
K. pneumo JMI 4106 = K. pneumo JMI 4106 (KPC-3, TEM-1, SHV-12, SHV-141); for MIC Aztreonam + inhibitor: Aztreonam + inhibitor at 4 µg/mL; for MIC Ceftazidime + inhibitor: Ceftazidime + inhibitor at 4 µg/mL; for MIC Meropenem + inhibitor: Meropenem + inhibitor at 4 µg/mL; for MIC: substance alone, read-out: MIC

NCCONC(=O)[C@@H]1CC[C@@H]2CN1C(=O)N2OS(=O)(=O)O [Ex. 3, (2S,5R)-N-(2-Aminoethoxy)-7-oxo-6-(sulfooxy)-1,6-diazabicyclo[3.2.1]octane-2-carboxamide]
MIC (P. aerug JMI 2686): > 16 µg/mL
MIC (E. coli JMI 10770): > 16 µg/mL
MIC (K.pneumo JMI 4109): 2 µg/mL
MIC Aztreonam + inhibitor (K. pneumo JMI 2693): 0.25 µg/mL
MIC Ceftazidime + inhibitor (K. pneumo JMI 2693): ≤0.25 µg/mL
MIC Meropenem + inhibitor (K. pneumo JMI 2693): ≤0.0312 µg/mL
MIC (K. pneumo JMI 2693): 8 µg/mL
MIC Aztreonam + inhibitor (K. pneumo JMI 2697): 0.25 µg/mL
MIC Ceftazidime + inhibitor (K. pneumo JMI 2697): 0.5 µg/mL
MIC Meropenem + inhibitor (K. pneumo JMI 2697): 0.25 µg/mL
MIC (K. pneumo JMI 2697): 8 µg/mL
MIC Aztreonam + inhibitor (E. coli JMI 2692): ≤0.062 µg/mL
MIC Ceftazidime + inhibitor (E. coli JMI 2692): ≤0.25 µg/mL
MIC Meropenem + inhibitor (E. coli JMI 2692): ≤0.0312 µg/mL
MIC (E. coli JMI 2692): 2 µg/mL
MIC Aztreonam + inhibitor (E. coli JMI 11103): 0.5 µg/mL
MIC Ceftazidime + inhibitor (E. coli JMI 11103): 0.5 µg/mL
MIC Meropenem + inhibitor (E. coli JMI 11103): 0.062 µg/mL
MIC (E. coli JMI 11103): 4 µg/mL
MIC Aztreonam + inhibitor (K. pneumo JMI 4106): ≤0.062 µg/mL
MIC Ceftazidime + inhibitor (K. pneumo JMI 4106): ≤0.25 µg/mL
MIC Meropenem + inhibitor (K. pneumo JMI 4106): ≤0.0312 µg/mL
MIC (K. pneumo JMI 4106): 2 µg/mL

CCC(=O)NNC(=O)[C@@H]1CC[C@@H]2CN1C(=O)N2OS(=O)(=O)O [Ex. 8, (2S,5R)-7-oxo-N'-propanoyl-6-(sulfooxy)-1,6-diazabicyclo[3.2.1]octane-2-carbohydrazide]
MIC (P. aerug JMI 2686): > 16 µg/mL
MIC (E. coli JMI 10770): > 16 µg/mL
MIC (K.pneumo JMI 4109): 4 µg/mL
MIC Aztreonam + inhibitor (K. pneumo JMI 2693): 2 µg/mL
MIC Ceftazidime + inhibitor (K. pneumo JMI 2693): 8 µg/mL
MIC Meropenem + inhibitor (K. pneumo JMI 2693): 0.125 µg/mL
MIC (K. pneumo JMI 2693): > 16 µg/mL
MIC Aztreonam + inhibitor (K. pneumo JMI 2697): ≤0.062 µg/mL
MIC Ceftazidime + inhibitor (K. pneumo JMI 2697): 16 µg/mL
MIC Meropenem + inhibitor (K. pneumo JMI 2697): 2 µg/mL
MIC (K. pneumo JMI 2697): > 16 µg/mL
MIC Aztreonam + inhibitor (E. coli JMI 2692): ≤0.062 µg/mL
MIC Ceftazidime + inhibitor (E. coli JMI 2692): ≤0.25 µg/mL
MIC Meropenem + inhibitor (E. coli JMI 2692): 2 µg/mL
MIC (E. coli JMI 2692): 4 µg/mL
MIC Aztreonam + inhibitor (E. coli JMI 11103): ≤0.062 µg/mL
MIC Ceftazidime + inhibitor (E. coli JMI 11103): ≤0.25 µg/mL
MIC Meropenem + inhibitor (E. coli JMI 11103): ≤0.0312 µg/mL
MIC (E. coli JMI 11103): > 16 µg/mL
MIC Aztreonam + inhibitor (K. pneumo JMI 4106): ≤0.062 µg/mL
MIC Ceftazidime + inhibitor (K. pneumo JMI 4106): ≤0.25 µg/mL
MIC Meropenem + inhibitor (K. pneumo JMI 4106): ≤0.0312 µg/mL
MIC (K. pneumo JMI 4106): > 16 µg/mL

O=C(NO[C@H]1CCCNC1)[C@@H]1CC[C@@H]2CN1C(=O)N2OS(=O)(=O)O [Ex. 2, (2S,5R)-7-Oxo-N-[(3S)-piperidin-3-yloxy] -6-(sulfooxy)-1,6-diazabicyclo[3.2.1]octane-2-carboxamide]
MIC (P. aerug JMI 2686): > 16 µg/mL
MIC (E. coli JMI 10770): 4 µg/mL
MIC (K.pneumo JMI 4109): 16 µg/mL
MIC Aztreonam + inhibitor (K. pneumo JMI 2693): ≤.062 µg/mL
MIC Ceftazidime + inhibitor (K. pneumo JMI 2693): ≤0.25 µg/mL
MIC Meropenem + inhibitor (K. pneumo JMI 2693): ≤.031 µg/mL
MIC (K. pneumo JMI 2693): 4 µg/mL
MIC Aztreonam + inhibitor (K. pneumo JMI 2697): ≤.062 µg/mL
MIC Ceftazidime + inhibitor (K. pneumo JMI 2697): 0.5 µg/mL
MIC Meropenem + inhibitor (K. pneumo JMI 2697): ≤.031 µg/mL
MIC (K. pneumo JMI 2697): 4 µg/mL
MIC Aztreonam + inhibitor (E. coli JMI 2692): ≤.062 µg/mL
MIC Ceftazidime + inhibitor (E. coli JMI 2692): ≤0.25 µg/mL
MIC Meropenem + inhibitor (E. coli JMI 2692): ≤.031 µg/mL
MIC (E. coli JMI 2692): ≤ 0.5 µg/mL
MIC Aztreonam + inhibitor (E. coli JMI 11103): ≤.062 µg/mL
MIC Ceftazidime + inhibitor (E. coli JMI 11103): ≤0.25 µg/mL
MIC Meropenem + inhibitor (E. coli JMI 11103): ≤.031 µg/mL
MIC (E. coli JMI 11103): 4 µg/mL
MIC Aztreonam + inhibitor (K. pneumo JMI 4106): ≤.062 µg/mL
MIC Ceftazidime + inhibitor (K. pneumo JMI 4106): ≤0.25 µg/mL
MIC Meropenem + inhibitor (K. pneumo JMI 4106): ≤.031 µg/mL
MIC (K. pneumo JMI 4106): > 16 µg/mL
